Results on 1 molecule are retold here after ChEMBL document CHEMBL3714737, “Small molecule modulators of G protein-coupled receptor six” (2002).

Active and inactive are the calls of the source. The rule behind the calls is not given here.

The subject of series [1] is Rattus norvegicus. The experiment in a line: Reduction in food intake in 24 hrs food-deprived Sprague-Dawley rat assessed as food intake level at 54 mg/kg, po followed by standard chow pellets feeding and measured 8 hrs post dose (reference value: 14g). The class given is functional.
In series [2] the test system is Rattus norvegicus. The experiment in a line: Induction of sedation in non-food-deprived Sprague-Dawley rat subjected to pre-pulse of 12 db followed by 120 db pulse assessed as animal jump height level at 6.75 mg/kg, po dosed […] before test. In kind it is organism-based. The conditions noted are these: in vivo.
Series [3] relates to Rattus norvegicus. The experiment in a line: Induction of sedation in non-food-deprived Sprague-Dawley rat subjected to pre-pulse of 12 db followed by 120 db pulse assessed as animal jump height level at 13.5 and 54 mg/kg, po dosed […] before test. The class given is organism-based. Conditions: in vivo.
Series [4] concerns Rattus norvegicus. The series can be described thus: Induction of sedation in ip dosed Sprague-Dawley rat assessed as absence of anxiety-like behavior after 16 hrs post dose. The class given is organism-based. Conditions: in vivo.
The test system of series [5] is Rattus norvegicus. The experiment in a line: Effect on motor function in ip dosed Sprague-Dawley rat assessed as effect on locomotor activity after 16 hrs post dose. In kind it is ADME, organism-based. The conditions noted are these: in vivo.
Series [6] has as its system Rattus norvegicus. The experiment in a line: Reduction in water intake in 24 hrs food-deprived Sprague-Dawley rat assessed reduction in water intake level at 100 nmol, icv relative to control. The class given is functional.
Series [7] concerns Rattus norvegicus. The series can be described thus: Reduction in food intake in 24 hrs food-deprived Sprague-Dawley rat at 25 to 100 nmol, icv measured 2.5 hrs post dose relative to control. The class given is functional.
Series [8] concerns Rattus norvegicus. The experiment in a line: Reduction in body weight gain in non-food-deprived Sprague-Dawley rat at 13.5 mg/kg, ip qd for 22 days measured between day-31 and day-60 post dose. The class given is functional, organism-based.
Series [9] relates to Rattus norvegicus. The experiment in a line: Reduction in body weight gain in non-food-deprived Sprague-Dawley rat at 13.5 mg/kg, ip qd for 22 days measured between day-4 and day-31 post dose. The class given is functional, organism-based.
The subject of series [10] is Rattus norvegicus. The experiment in a line: Reduction in body weight gain in non-food-deprived Sprague-Dawley rat at 13.5 mg/kg, ip qd for 22 days measured on day-1 and day-3 post dose. The class given is functional, organism-based.
For series [11], the system named is Rattus norvegicus. The experiment in a line: Reduction in body weight gain in non-food-deprived Sprague-Dawley rat at 6.75 to 54 mg/kg, ip dosed 30 mins before beginning of dark cycle followed by exposure to standard chow pellets and measured 15.5 hrs post dose. The class given is functional, organism-based.
The subject of series [12] is Rattus norvegicus. The series can be described thus: Reduction in water intake in non-food-deprived Sprague-Dawley rat at 6.75 to 54 mg/kg, ip dosed 30 mins before beginning of dark cycle followed by exposure to standard chow pellets and measured 15.5 hrs post dose. In kind it is functional, organism-based.
Series [13] has as its system Rattus norvegicus. The series can be described thus: Induction of sedation in ip dosed Sprague-Dawley rat assessed as relaxed behavior after 16 hrs post dose. The class given is organism-based. The conditions noted are these: in vivo.
Series [14] concerns the target G-protein coupled receptor 6 (Homo sapiens) (UniProt P46095). The experiment in a line: Activity at rat G-protein GSalpha fused GPR6 (unknown origin) expressed in HEK293 cell membranes assessed as effect on [35S]GTPgammaS binding pre-incubated for 5 to 10 mins followed by 60 mins incubation in presence of [35S]GTPgammaS by scintillation proximity assay. In kind it is functional.

The test system of series [15] is Rattus norvegicus. The series can be described thus: Effect on motor function in ip dosed Sprague-Dawley rat assessed as effect on locomotor activity after 1.5 hrs post dose. In kind it is ADME, organism-based. The conditions noted are these: in vivo.
Series [16] concerns Rattus norvegicus. The experiment in a line: Reduction in 24 hrs food intake in 24 hrs food-deprived Sprague-Dawley rat at 6.75 to 54 mg/kg, ip followed by standard chow pellets feeding and measured for 6.5 hrs post dose. In kind it is functional, organism-based.
For series [17], the system named is Rattus norvegicus. The experiment in a line: Reduction in water intake in 24 hrs food-deprived Sprague-Dawley rat at 6.75 to 54 mg/kg, ip followed by standard chow pellets feeding and measured for 6.5 hrs post dose. The class given is functional, organism-based.
Series [18] concerns Rattus norvegicus. The experiment in a line: Reduction in body weight gain in 24 hrs food-deprived Sprague-Dawley rat at 6.75 to 54 mg/kg, ip followed by standard chow pellets feeding and measured for 6.5 hrs post dose. The class given is functional, organism-based.
The test system of series [19] is Rattus norvegicus. The series can be described thus: Reduction in body weight gain in 24 hrs food-deprived Sprague-Dawley rat at 27 and 54 mg/kg, ip followed by standard chow pellets feeding and measured for 6.5 hrs post dose. The class given is functional, organism-based.

Sequence of G-protein coupled receptor 6 (Homo sapiens) (P46095 whole entry, the tested form may be a part): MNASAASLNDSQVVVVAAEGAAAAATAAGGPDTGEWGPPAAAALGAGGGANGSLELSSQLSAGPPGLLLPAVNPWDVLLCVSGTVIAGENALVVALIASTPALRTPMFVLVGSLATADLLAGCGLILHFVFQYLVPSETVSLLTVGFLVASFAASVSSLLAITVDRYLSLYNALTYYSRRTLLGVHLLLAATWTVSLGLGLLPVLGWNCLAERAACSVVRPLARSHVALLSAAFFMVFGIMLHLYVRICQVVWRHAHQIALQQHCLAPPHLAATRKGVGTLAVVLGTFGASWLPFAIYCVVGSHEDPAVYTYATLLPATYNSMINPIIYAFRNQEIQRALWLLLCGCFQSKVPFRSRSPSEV

For `O=C(/N=C1\SSC2=NCCN21)c1cccs1`, the Activity in the series with Rattus norvegicus [1] is listed as 16 g; with Rattus norvegicus [2], “Non-toxic”; with Rattus norvegicus [3] it was “Toxic”; in the series with Rattus norvegicus [4] it was “Toxic”; in the series with Rattus norvegicus [5] it was “Toxic”; in the series on Rattus norvegicus [13] it was “Toxic”. For the same molecule, the Activity result with Rattus norvegicus [15] was “Non-toxic”. In addition, the “inhibition (INH)” value in the series with Rattus norvegicus [6] is “<=50%”. Also, the “fold change (FC)” value with Rattus norvegicus [7] is listed as “<=6”. In addition, the result (with Rattus norvegicus [8]; in the series on Rattus norvegicus [9]; in the series with Rattus norvegicus [10]; in the series on Rattus norvegicus [11]; with Rattus norvegicus [12]; in [14]) was Active. For the same molecule, the outcome in the series on Rattus norvegicus [16], in the series on Rattus norvegicus [17], in the series on Rattus norvegicus [18] and in the series with Rattus norvegicus [19] was Active.
